Reference: patent publication US20100317647A1 (priority 2009, published 2010)

Target: human Cat S (Homo sapiens, UniProt P25774)
Test: Cathepsin enzyme inhibition assay (fluorogenic peptide substrate cleavage)
Assay type: biochemical
Conditions: human Cat S 1 nM; substrate Z-Val-Val-Arg-AMC 20 μM; pH 6.5; fluorescence over 20 minutes
Description: Cathepsin Enzyme Inhibition Assay
Enzyme activity is measured by observing the increase in fluorescence intensity caused by cleavage of a peptide substrate containing a fluorophore whose emission is quenched in the intact peptide.
Assay buffer: 100 mM potassium phosphate pH 6.5, EDTA-Na 5 mM, Triton X-100 0.001%, DTT 5 mM. Enzymes (all at 1 nM): human and mouse Cathepsin S, Cat K, Cat B, Cat L. Substrate (20 μM): Z-Val-Val-Arg-AMC, except for Cat K which uses Z-Leu-Arg-AMC (both from Bachem).
AMC=7-Amino-4-Methyl-Coumarin.
DTT=dithiothreitol. Final volume: 100 μL.
Excitation 360 nm, Emission 465 nm.
Enzyme is added to the substance dilutions in 96-well microtitre plates and the reaction is started with substrate. Fluorescence emission is measured over 20 minutes, during which time a linear increase is observed in the absence of inhibitor. IC50 are calculated by standard methods. Inhibition of human Cat S, mouse Cat S, human Cat K, mouse Cat K, human Cat B, mouse Cat B, human Cat L and mouse Cat L have been measured separately. The results obtained for human Cat S are expressed in the following table.

Sequence of human Cat S (P25774 115-331): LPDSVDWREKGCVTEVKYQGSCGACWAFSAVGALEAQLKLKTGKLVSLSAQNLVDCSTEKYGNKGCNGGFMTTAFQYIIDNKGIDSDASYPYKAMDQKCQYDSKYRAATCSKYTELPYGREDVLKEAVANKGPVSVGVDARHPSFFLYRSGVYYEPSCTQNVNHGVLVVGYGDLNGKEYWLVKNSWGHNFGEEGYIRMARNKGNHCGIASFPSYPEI

With `N#CCNC(=O)[C@@H]1CC(S(=O)(=O)c2ccccc2Cl)C[C@H]1COc1ccc(O)nn1` (mixture of isomers) [Example 107, (1R,2R,4R)-4-(2-Chloro-benzenesulfonyl)-2-(6-hydroxy-pyridazin-3-yloxymethyl)-cyclopentanecarboxylic acid cyanomethylamide and (1R,2R,4S)-4-(2-Chloro-benzenesulfonyl)-2-(6-hydroxy-pyridazin-3-yloxymethyl)-cyclopentanecarboxylic acid cyanomethylamide] as the compound, how does the IC50 read?
The IC50 was 20.2 nM.

Which IC50 does the source give for `N#CC1(NC(=O)[C@@H]2CC(S(=O)(=O)c3ccccc3Cl)C[C@H]2COc2ccc(O)nn2)CC1` (mixture of isomers) [Example 108, (1R,2R,4S)-4-(2-Chloro-benzenesulfonyl)-2-(6-hydroxy-pyridazin-3-yloxymethyl)-cyclopentanecarboxylic acid(1-cyano-cyclopropyl)-amide and (1R,2R,4R)-4-(2-Chloro-benzenesulfonyl)-2-(6-hydroxy-pyridazin-3-yloxymethyl)-cyclopentanecarboxylic acid(1-cyano-cyclopropyl)-amide] here?
Its IC50 is 21.2 nM.

Which IC50 does the source give for `Cc1ccc(S(=O)(=O)C2C[C@@H](C(=O)NC3(C#N)CC3)[C@H](C(=O)N3CCC(F)(F)C3)C2)nn1` (mixture of isomers) [Example 224, (1R,2R,4S)-2-(3,3-Difluoro-pyrrolidine-1-carbonyl)-4-(6-methyl-pyridazine-3-sulfonyl)-cyclopentanecarboxylic acid (1-cyano-cyclopropyl)-amide and (1R,2R,4R)-2-(3,3-Difluoro-pyrrolidine-1-carbonyl)-4-(6-methyl-pyridazine-3-sulfonyl)-cyclopentanecarboxylic acid (1-cyano-cyclopropyl)-amide] here?
The IC50 was 32 nM.

How did the IC50 turn out when `CO[C@@H]1C[C@H](S(=O)(=O)c2ccc(-c3ccc(F)cn3)cc2C(F)(F)F)C[C@H]1C(=O)NC1(C#N)CC1` (racemic) [Example 30, (1R,2R,4R) and (1S,2S,4S)-4-[4-(5-Fluoro-pyridin-2-yl)-2-trifluoromethyl-benzenesulfonyl]-2-methoxy-cyclopentanecarboxylic acid (1-cyano-cyclopropyl)-amide] was run?
Its IC50 is 1 nM.

`CO[C@@H]1C[C@H](S(=O)(=O)c2ccc(-c3ccccn3)cc2C(F)(F)F)C[C@H]1C(=O)NC1(C#N)CC1` (racemic) [Example 41, (1R,2R,4R) and (1S,2S,4S)-2-Methoxy-4-(4-pyridin-2-yl-2-trifluoromethyl-benzenesulfonyl)-cyclopentanecarboxylic acid (1-cyano-cyclopropyl)-amide] was tested. Which IC50 did it give?
Its IC50 is 0.1 nM.

`N#CCNC(=O)[C@@H]1CC[C@H](S(=O)(=O)c2ccccc2Cl)C1` (racemic) [Example 43, 3-(2-Chloro-benzenesulfonyl)-cyclopentanecarboxylic acid cyanomethyl-amide] was tested. Which IC50 did it give?
The IC50 was 345 nM.

For `CO[C@@H]1C[C@H](S(=O)(=O)c2ccccc2C(F)(F)F)C[C@H]1C(=O)NC1(C#N)CC1` (racemic) [Example 46, (1R,2R,4R) and (1S,2S,4S)-2-Methoxy-4-(2-trifluoromethyl-benzenesulfonyl)-cyclopentanecarboxylic acid (1-cyano-cyclopropyl)-amide], which IC50 is on record?
Its IC50 is 5.8 nM.

With `CO[C@@H]1C[C@H](S(=O)(=O)c2ccccc2C(F)(F)F)C[C@H]1C(=O)NCC#N` (racemic) [Example 47, (1R,2R,4R) and (1S,2S,4S)-2-Methoxy-4-(2-trifluoromethyl-benzenesulfonyl)-cyclopentanecarboxylic acid cyanomethyl-amide] as the compound, how does the IC50 read?
Its IC50 is 7.8 nM.

`N#CC1(NC(=O)[C@@H]2C[C@@H](S(=O)(=O)c3ccccc3Cl)C[C@H]2O)CC1` (racemic) [Example 48, (1R,2R,4R) and (1S,2S,4S)-4-(2-Chloro-benzenesulfonyl)-2-hydroxy-cyclopentanecarboxylic acid (1-cyano-cyclopropyl)-amide] was tested. Which IC50 did it give?
Its IC50 is 120 nM.

`N#CCNC(=O)[C@@H]1C[C@@H](S(=O)(=O)c2ccccc2Cl)C[C@H]1O` (racemic) [Example 49, (1R,2R,4R) and (1S,2S,4S)-4-(2-Chloro-benzenesulfonyl)-2-hydroxy-cyclopentanecarboxylic acid cyanomethyl-amide] was tested. Which IC50 did it give?
The IC50 was 82.3 nM.

With `CO[C@@H]1C[C@H](S(=O)(=O)c2ccc(Cl)cc2Cl)C[C@H]1C(=O)NC1(C#N)CC1` (racemic) [Example 50, (1R,2R,4R) and (1S,2S,4S)-4-(2,4-Dichloro-benzenesulfonyl)-2-methoxy-cyclopentanecarboxylic acid (1-cyano-cyclopropyl)-amide] as the compound, how does the IC50 read?
Its IC50 is 25 nM.

`CO[C@@H]1C[C@H](S(=O)(=O)c2ccc(Cl)cc2Cl)C[C@H]1C(=O)NCC#N` (racemic) [Example 51, (1R,2R,4R) and (1S,2S,4S)-4-(2,4-Dichloro-benzenesulfonyl)-2-methoxy-cyclopentanecarboxylic acid cyanomethyl-amide] was tested. Which IC50 did it give?
Its IC50 is 20 nM.

`N#CC1(NC(=O)[C@H]2C[C@@H](S(=O)(=O)c3ccccc3Cl)C[C@@H]2O)CC1` (racemic) [Example 52, (1S,2S,4R) and (1R,2R,4S)-4-(2-Chloro-benzenesulfonyl)-2-hydroxy-cyclopentanecarboxylic acid (1-cyano-cyclopropyl)-amide] was tested. Which IC50 did it give?
Its IC50 is 11700 nM.

Which IC50 does the source give for `N#CCNC(=O)[C@H]1C[C@@H](S(=O)(=O)c2ccccc2Cl)C[C@@H]1O` (racemic) [Example 53, (1S,2S,4R) and (1R,2R,4S)-4-(2-Chloro-benzenesulfonyl)-2-hydroxy-cyclopentanecarboxylic acid cyanomethyl-amide] here?
Its IC50 is 6690 nM.

With `CCCO[C@@H]1C[C@H](S(=O)(=O)c2ccccc2C(F)(F)F)C[C@H]1C(=O)NC1(C#N)CC1` (racemic) [Example 54, (1R,2R,4R) and (1S,2S,4S)-2-Propoxy-4-(2-trifluoromethyl-benzenesulfonyl)-cyclopentanecarboxylic acid (1-cyano-cyclopropyl)-amide] as the compound, how does the IC50 read?
The IC50 was 2.1 nM.

Which IC50 does the source give for `CCCO[C@@H]1C[C@H](S(=O)(=O)c2ccccc2C(F)(F)F)C[C@H]1C(=O)NCC#N` (racemic) [Example 55, (1R,2R,4R) and (1S,2S,4S)-2-Propoxy-4-(2-trifluoromethyl-benzenesulfonyl)-cyclopentanecarboxylic acid cyanomethyl-amide] here?
The IC50 was 2.1 nM.

With `CO[C@@H]1C[C@H](S(=O)(=O)c2ccc(F)cc2Cl)C[C@H]1C(=O)NC1(C#N)CC1` (racemic) [Example 56, (1R,2R,4R) and (1S,2S,4S)-4-(2-Chloro-4-fluoro-benzenesulfonyl)-2-methoxy-cyclopentanecarboxylic acid (1-cyano-cyclopropyl)-amide] as the compound, how does the IC50 read?
Its IC50 is 24.8 nM.

With `CO[C@@H]1C[C@H](S(=O)(=O)c2ccc(Oc3ccc(F)cc3)cc2Cl)C[C@H]1C(=O)NC1(C#N)CC1` (racemic) [Example 57, (1R,2R,4R) and (1S,2S,4S)-4-[2-Chloro-4-(4-fluoro-phenoxy)-benzenesulfonyl]-2-methoxy-cyclopentanecarboxylic acid (1-cyano-cyclopropyl)-amide] as the compound, how does the IC50 read?
Its IC50 is 21.8 nM.

How did the IC50 turn out when `CO[C@@H]1C[C@H](S(=O)(=O)c2ccc(Br)cc2C(F)(F)F)C[C@H]1C(=O)NC1(C#N)CC1` (racemic) [Example 58, (1R,2R,4R) and (1S,2S,4S)-4-(4-Bromo-2-trifluoromethyl-benzenesulfonyl)-2-methoxy-cyclopentanecarboxylic acid (1-cyano-cyclopropyl)-amide] was run?
The IC50 was 6.2 nM.

How did the IC50 turn out when `CO[C@@H]1C[C@H](S(=O)(=O)c2ccc(-n3cccn3)cc2Cl)C[C@H]1C(=O)NC1(C#N)CC1` (racemic) [Example 59, (1R,2R,4R) and (1S,2S,4S)-4-(2-Chloro-4-pyrazol-1-yl-benzenesulfonyl)-2-methoxy-cyclopentanecarboxylic acid (1-cyano-cyclopropyl)-amide] was run?
The IC50 was 4 nM.

With `CO[C@@H]1C[C@H](S(=O)(=O)c2ccc(O[C@H](C)C(F)(F)F)cc2Cl)C[C@H]1C(=O)NC1(C#N)CC1` (racemic) [Example 60, (1R,2R,4R) and (1S,2S,4S)-4-[2-Chloro-4-((R/S)-2,2,2-trifluoro-1-methyl-ethoxy)-benzenesulfonyl]-2-methoxy-cyclopentanecarboxylic acid (1-cyano-cyclopropyl)-amide] as the compound, how does the IC50 read?
The IC50 was 26.5 nM.

With `CO[C@@H]1C[C@H](S(=O)(=O)c2ccc(-c3nc(C)cs3)cc2C(F)(F)F)C[C@H]1C(=O)NC1(C#N)CC1` (racemic) [Example 61, (1R,2R,4R) and (1S,2S,4S)-2-Methoxy-4-[4-(4-methyl-thiazol-2-yl)-2-trifluoromethyl-benzenesulfonyl]-cyclopentanecarboxylic acid (1-cyano-cyclopropyl)-amide] as the compound, how does the IC50 read?
The IC50 was 0.3 nM.

How did the IC50 turn out when `CO[C@@H]1C[C@H](S(=O)(=O)c2ccc(-c3ccc(F)cc3F)cc2C(F)(F)F)C[C@H]1C(=O)NC1(C#N)CC1` (racemic) [Example 62, (1R,2R,4R) and (1S,2S,4S)-4-(2′,4′-Difluoro-3-trifluoromethyl-biphenyl-4-sulfonyl)-2-methoxy-cyclopentanecarboxylic acid (1-cyano-cyclopropyl)-amide] was run?
The IC50 was 1.4 nM.

For `CO[C@@H]1C[C@H](S(=O)(=O)c2ccc(-c3ccc(F)cc3)cc2C(F)(F)F)C[C@H]1C(=O)NC1(C#N)CC1` (racemic) [Example 63, (1R,2R,4R) and (1S,2S,4S)-4-(4′-Fluoro-3-trifluoromethyl-biphenyl-4-sulfonyl)-2-methoxy-cyclopentanecarboxylic acid (1-cyano-cyclopropyl)-amide], which IC50 is on record?
The IC50 was 1.3 nM.
